Here are results for two compounds from patent US20040138285A1, “Chondrogenesis promoters” (priority 2001, published 2004).

For experiment [1], the system named is rat articular chondrocytes. In words: Cartilage matrix production promoting effect of compound A and PD98059 (alcian blue staining), Example 2. The format is cell-based. As to conditions: one week; for ratio of alcian blue positive cells (photomicrograph after alcian blue staining): compound A 2×10^−6 mol/L or PD98059 5×10^−5 mol/L alone, vs vehicle control (FIG. 7); for production of the cartilage matrix (alcian blue staining intensity, absorption at 595 nm): each agent alone (compound A 2×10^−6 mol/L; PD98059 5×10^−5 mol/L), vs vehicle control, p<0.05 (FIG. 8). As for the experimental part: A 5-week-old male SD rat (Charles River Japan Corp.) was euthanized, and thereafter the femur was removed therefrom, and the articular cartilage layer was stripped off from the knee joint surface of the femur with a scalpel. The articular cartilage obtained was treated with 0.15% trypsin (DIFCO Lab.)/0.05% EDTA (Nacalai Tesque, Inc.) at 37° C. for one hour, and thereafter the matrix was decomposed while being agitated at 37° C. in 0.15% collagenase (WORTHINGTON Corp.) for three hours, thereby obtaining a cell suspension. The cartilage cells obtained were seeded at the cell density of 20000 per well in a 24-well culturing plate (Falcon Corp.) coated with type I collagen (Nitta Gelatin Inc.) and were cultured in a Dulbecco's modified Eagle medium (Gibco) containing 10% fetal bovine serum (REHATUIN) and antibiotic-antimycotic (Gibco) (Calcif. Tissue Int. 19: 179-187, 1975). After achievement of the confluent state of cells, 50 μg/mL ascorbic acid (Wako Pure Chemical Industries) was added to the medium, and either or both of 2×10^−6 mol/L compound A and 2×10^−6 to 5×10^−5 mol/L compound with MEK1 inhibitory activity PD98059 (New England Biolab) were further added thereto, followed by culture for one week. 0.12% DMSO (JUNSEI CHEMICAL CO., LTD) was used as a solvent vehicle control. The medium was replaced every two to three days and the above agents were added every replacement.
After completion of the culture, the cell layer was fixed at room temperature in 4% paraformaldehyde solution (Wako Pure Chemical Industries) for two hours and then washed with distilled water and 5% acetic acid of pH 1.0, and thereafter the cartilage matrix was stained at room temperature with alcian blue of pH 1.0 (Wako Pure Chemical Industries) for two hours. The cell layer was washed with 5% acetic acid and distilled water and then dried, 6 mol/L guanidine hydrochloride (Nacalai Tesque, Inc.) was added to the cell layer to extract the dye therefrom, and absorption was measured at 595 nm with the Microplate reader (BioRad).

Experiment [2] has as its system rat articular chondrocytes. In words: Cartilage matrix production promoting effect of compound A and U0126 (alcian blue staining, phase contrast morphology), Example 1. The format is cell-based.
Description: A 5-week-old male SD rat (Charles River Japan Corp.) was euthanized, and thereafter the femur was removed therefrom, and the articular cartilage layer was stripped off from the knee joint surface of the femur with a scalpel. The articular cartilage obtained was treated with 0.15% trypsin (DIFCO Lab.)/0.05% EDTA (KANTO KAGAKU CORP.) at 37° C. for one hour, and thereafter the matrix was decomposed while being agitated at 37° C. in 0.15% collagenase (WORTHINGTON Corp.) for three hours, thereby obtaining a cell suspension. […] 0.12% DMSO (Wako Pure Chemical Industries) was used as a solvent vehicle control. The medium was replaced every two to three days and the above agents were added every replacement.
After completion of the culture, the cell layer was fixed at room temperature in 4% paraformaldehyde solution (Wako Pure Chemical Industries) for two hours and then washed with distilled water and 5% acetic acid of pH 1.0, and thereafter the cartilage matrix was stained at room temperature with alcian blue of pH 1.0 (Wako Pure Chemical Industries) for two hours. The cell layer was washed with 5% acetic acid and distilled water and then dried, 6 mol/L guanidine hydrochloride (Nacalai Tesque, Inc.) was added to the cell layer to extract the dye therefrom, and the absorption was measured at 630 nm with a Microplate reader (BioRad).

The structures appear in SMILES notation.

Consider `COc1cccc(-c2cc(=O)c3ccccc3o2)c1N` [PD98059, reference compound], for which, in experiment [1], the “ratio of alcian blue positive cells (photomicrograph after alcian blue staining)” value is given as “the ratio of alcian blue positive cells increased” and the “production of the cartilage matrix (alcian blue staining intensity, absorption at 595 nm)” value is “significantly promoted the production of the cartilage matrix”.

As to `CCOC(CN1C(=O)[C@](CC(=O)Nc2ccc(C)cc2)(NC(=O)Nc2ccc(C)cc2)c2ccccc21)OCC` [compound A], in experiment [1], the “ratio of alcian blue positive cells (photomicrograph after alcian blue staining)” value is listed as “the ratio of alcian blue positive cells increased” and the “production of the cartilage matrix (alcian blue staining intensity, absorption at 595 nm)” value was “significantly promoted the production of the cartilage matrix”. The “production of the matrix and morphology of chondrocytes (phase contrast photomicrograph)” value in experiment [2] (compound A 2×10^−6 mol/L alone, cultured one week, vs vehicle control 0.12% DMSO (FIG. 2)) was “production of the matrix was enhanced”. The “production of the cartilage matrix (alcian blue staining intensity, absorption at 630 nm)” value in experiment [2] (each agent alone (compound A 5×10^−7 to 2×10^−6 mol/L; U0126 1×10^−7 to 1×10^−5 mol/L), one week, vs vehicle control, p<0.05 (FIGS. 5 and 6)) was “significantly promoted the production of the cartilage matrix”.
